Legend:
Plasmodium falciparum [1] = assay: Antimalarial activity against drug-resistant asynchronous Plasmodium falciparum Dd2 infected in erythrocytes assessed as parasite growth inhibition at 10 uM after 48 hrs by [3H]-hypoxanthine incorporation assay relative to control; type: functional; conditions: read-out: GI
[2] = Selectivity ratio of IC50 for human NFF to IC50 for drug-resistant asynchronous Plasmodium falciparum Dd2
[3] = Selectivity ratio of IC50 for human NFF to IC50 for chloroquine-sensitive asynchronous Plasmodium falciparum 3D7
Plasmodium falciparum [4] = assay: Antimalarial activity against chloroquine-sensitive asynchronous Plasmodium falciparum 3D7 infected in erythrocytes assessed as parasite growth inhibition after 48 hrs by [3H]-hypoxanthine incorporation assay; type: functional, organism-based
Plasmodium falciparum [5] = assay: Antimalarial activity against drug-resistant asynchronous Plasmodium falciparum Dd2 infected in erythrocytes assessed as parasite growth inhibition after 48 hrs by [3H]-hypoxanthine incorporation assay; type: functional, organism-based

| Compound | inhibition of growth at 10 µM (Plasmodium falciparum [1]) [%] | Ratio IC50 [2] | Ratio IC50 [3] | IC50 (Plasmodium falciparum [4]) [nM] | IC50 (Plasmodium falciparum [5]) [nM] |
| --- | --- | --- | --- | --- | --- |
| [C-]#[N+][C@]1(C)[C@H](C)C[C@@H]2C[C@H](C)[C@H]3CC[C@](C)([N+]#[C-])[C@H]4CC[C@H]1[C@@H]2[C@H]34 [DIISOCYANOADOCIANE] | 98.3 |  |  |  |  |
| [C-]#[N+]C1=CC(C)(C)[C@@H]2CC[C@@]3(C)CCC[C@@]12C3 | 98.3 | 45 | 45 | 300 | 360 |
| CC1(C)C[C@@H]2[C@H]1CC[C@@]1(C)CCC[C@]2(N=C=S)C1 | < 50 |  |  | > 10000 |  |
| [C-]#[N+][C@@H]1CCC(C)=C[C@@H]2[C@@H](C(C)C)CC[C@]21C | 98.3 | 45 | 45 | 260 | 870 |
| [C-]#[N+][C@@H]1[C@H]2C(=C)CCC[C@]2(C)CC[C@H]1C(C)C | 98.3 |  |  |  |  |
| [C-]#[N+][C@@H]1CC(C)(C)[C@@H]2CC[C@@]3(C)CCC[C@@]12C3 | 98.3 | 45 | 45 | 290 | 830 |
| [C-]#[N+][C@@H]1[C@H](C(C)C)CC[C@@H](C)[C@@]12C=C(C)CC2 [AXISONITRILE 3] | 98.3 |  |  |  |  |
| CC1(C)C=C(NC=O)[C@]23CCC[C@](C)(CC[C@@H]12)C3 | < 50 |  |  | > 10000 |  |
